Test results as given in ChEMBL document CHEMBL1201862, “PubChem BioAssay data set” (2004).
Calls of active or inactive are those of the source. Cut-off read from the data, not from the text of the source, for most assays here: actives have a measured EC50 and inactives only a lower limit.

Assays:
[1] = Luminescence Cell-Based Dose Response HTS to Identify Activators of Luciferase Translation or Activity in H4 […] Cells. [Related pubchem assays: 1829 (Project Summary), 1814 (Primary HTS)]; assay type: functional
[2] = Luminescence Cell-Based Dose Confirmation HTS to Identify Activators of 5'UTR Stem-Loop Driven Alpha-Synuclein mRNA Translation in H4 Neuroglioblastoma Cells. [Related pubchem assays: 1829 (Project Summary), 1814 (Primary HTS)]; assay type: functional
[3] = tested on: H4; assay: Luminescence Cell-Based Dose Response HTS to Identify Activators of 5'UTR Stem-Loop Driven Prion Protein mRNA Translation in H4 Neuroglioblastoma Cells. [Related pubchem assays: 1829 (Project Summary), 1814 (Primary HTS)]; assay type: functional; settings: Homo sapiens
[4] = molecular target: T1, Rac GTPase-activating protein 1 (Homo sapiens, UniProt Q9H0H5); assay: blockers of MgcRacGAP-driven Rac1 GTP hydrolysis – biochemical, ADP Hunter fluorescence, primary and confirmatory, confirmation (AID 624330); assay type: functional
T1 sequence (Q9H0H5 whole entry): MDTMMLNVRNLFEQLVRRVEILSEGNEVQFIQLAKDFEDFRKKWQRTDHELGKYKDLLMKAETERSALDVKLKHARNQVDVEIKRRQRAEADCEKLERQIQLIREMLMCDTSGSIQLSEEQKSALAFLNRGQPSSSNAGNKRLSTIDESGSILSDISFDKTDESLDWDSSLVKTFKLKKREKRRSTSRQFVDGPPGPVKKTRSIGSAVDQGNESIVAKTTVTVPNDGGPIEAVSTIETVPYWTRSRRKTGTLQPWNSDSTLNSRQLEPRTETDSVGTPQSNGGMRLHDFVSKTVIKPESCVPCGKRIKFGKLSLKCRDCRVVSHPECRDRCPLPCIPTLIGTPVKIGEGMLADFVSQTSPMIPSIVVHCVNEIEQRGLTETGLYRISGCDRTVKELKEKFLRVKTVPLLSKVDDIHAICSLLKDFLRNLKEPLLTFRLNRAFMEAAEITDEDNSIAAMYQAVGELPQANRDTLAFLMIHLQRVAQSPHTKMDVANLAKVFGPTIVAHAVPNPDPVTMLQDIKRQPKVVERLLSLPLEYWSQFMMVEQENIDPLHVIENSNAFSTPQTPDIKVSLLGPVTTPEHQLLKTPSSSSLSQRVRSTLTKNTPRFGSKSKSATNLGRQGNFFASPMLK

[5] = tested on: Streptococcus; assay: GAS UMAA2166 growth inhibition – luminescence, BacTiterGlo, counter-screen for streptokinase expression inhibitor project, dose response (AID 1915); assay type: functional, organism-based;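 note: potency for reduction of bacterial viability or growth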
[6] = tested on: INS1; assay: INS-1E survival protection against cytokine death – cell-based, luminescence, retest, dose response (AID 449756); assay type: functional; settings: Rattus norvegicus;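 note: cell death triggered by IL-1 beta plus TNF-alpha plus IFN-gamma mixture; protective hits raise ATP signal compared with cytokine alone wells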
[7] = tested on: Streptococcus sp. 'group A'; assay: Streptococcus pyogenes SK(-)GAS viability under kanamycin – luminescence, BacTiterGlo, confirmation, counter-screen for streptokinase expression inhibitor project, dose response (AID 1900); assay type: functional, organism-based
[8] = molecular target: T2, Corticotropin-releasing factor receptor 2/Corticotropin-releasing factor-binding protein (Homo sapiens, UniProt P24387+Q13324); assay: Dose Response confirmation of uHTS hits for small molecule antagonists of the CRF-binding protein and CRF-R2 receptor complex.; assay type: functional; settings: read-out: IC50_Mean
T2 sequence (Q13324 whole entry): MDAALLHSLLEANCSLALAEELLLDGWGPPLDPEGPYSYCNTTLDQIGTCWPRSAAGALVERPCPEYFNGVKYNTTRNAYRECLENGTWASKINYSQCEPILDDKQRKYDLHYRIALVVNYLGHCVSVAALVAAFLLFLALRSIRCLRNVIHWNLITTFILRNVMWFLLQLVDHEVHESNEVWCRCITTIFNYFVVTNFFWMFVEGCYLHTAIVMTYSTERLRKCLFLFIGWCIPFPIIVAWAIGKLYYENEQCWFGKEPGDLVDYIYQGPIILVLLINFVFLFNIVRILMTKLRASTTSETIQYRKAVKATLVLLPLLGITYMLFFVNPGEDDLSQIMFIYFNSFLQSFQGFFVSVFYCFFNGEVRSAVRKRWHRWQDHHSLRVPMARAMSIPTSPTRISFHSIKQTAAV
T2 sequence (P24387 whole entry): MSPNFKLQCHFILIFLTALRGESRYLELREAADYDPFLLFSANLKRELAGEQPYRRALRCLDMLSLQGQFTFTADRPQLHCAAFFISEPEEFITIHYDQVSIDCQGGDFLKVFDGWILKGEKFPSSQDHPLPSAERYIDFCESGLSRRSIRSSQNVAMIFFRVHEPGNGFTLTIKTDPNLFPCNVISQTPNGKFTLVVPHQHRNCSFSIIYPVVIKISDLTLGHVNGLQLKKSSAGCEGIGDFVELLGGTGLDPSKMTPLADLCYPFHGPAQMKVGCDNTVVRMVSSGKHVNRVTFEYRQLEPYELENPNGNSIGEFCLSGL

[9] = molecular target: T3, Replicative DNA helicase DnaB (Mycobacterium tuberculosis, UniProt P9WMR3); assay: DnaB intein splicing inhibitors, dose response, biochemical, cell-free fluorescence (AID 449749); assay type: functional
T3 sequence (P9WMR3 whole entry): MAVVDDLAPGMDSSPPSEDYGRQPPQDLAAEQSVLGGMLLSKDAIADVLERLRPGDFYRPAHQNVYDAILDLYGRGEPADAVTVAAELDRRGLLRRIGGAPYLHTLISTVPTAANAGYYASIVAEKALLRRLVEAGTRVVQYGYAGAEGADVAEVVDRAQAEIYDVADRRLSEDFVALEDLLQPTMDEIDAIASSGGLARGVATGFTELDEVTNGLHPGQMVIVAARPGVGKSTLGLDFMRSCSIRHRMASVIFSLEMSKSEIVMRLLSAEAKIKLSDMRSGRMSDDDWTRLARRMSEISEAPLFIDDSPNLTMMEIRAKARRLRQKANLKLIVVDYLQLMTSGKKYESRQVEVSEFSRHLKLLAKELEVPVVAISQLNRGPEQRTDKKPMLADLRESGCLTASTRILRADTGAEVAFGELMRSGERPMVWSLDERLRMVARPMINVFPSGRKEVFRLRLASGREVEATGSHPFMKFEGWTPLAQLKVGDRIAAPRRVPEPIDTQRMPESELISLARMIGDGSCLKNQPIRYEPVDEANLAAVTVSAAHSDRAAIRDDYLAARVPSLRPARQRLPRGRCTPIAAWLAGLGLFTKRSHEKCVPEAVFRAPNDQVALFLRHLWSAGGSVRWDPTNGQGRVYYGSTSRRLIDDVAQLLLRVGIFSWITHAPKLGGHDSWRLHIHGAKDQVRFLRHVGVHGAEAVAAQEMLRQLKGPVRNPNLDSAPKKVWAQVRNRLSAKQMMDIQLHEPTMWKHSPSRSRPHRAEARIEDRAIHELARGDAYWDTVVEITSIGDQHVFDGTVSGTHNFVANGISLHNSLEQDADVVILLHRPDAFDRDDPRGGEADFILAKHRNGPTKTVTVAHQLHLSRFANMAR

[10] = molecular target: T4, Protein RecA (Mycobacterium tuberculosis, UniProt P9WHJ3); assay: Fluorescence Cell-Free Homogeneous Dose Retest to Identify Inhibitors of RecA-Intein Splicing Activity. [Related pubchem assays (depositor defined):AID2097, AID2223, AID489010, AID492950]; assay type: functional
T4 sequence (P9WHJ3 whole entry): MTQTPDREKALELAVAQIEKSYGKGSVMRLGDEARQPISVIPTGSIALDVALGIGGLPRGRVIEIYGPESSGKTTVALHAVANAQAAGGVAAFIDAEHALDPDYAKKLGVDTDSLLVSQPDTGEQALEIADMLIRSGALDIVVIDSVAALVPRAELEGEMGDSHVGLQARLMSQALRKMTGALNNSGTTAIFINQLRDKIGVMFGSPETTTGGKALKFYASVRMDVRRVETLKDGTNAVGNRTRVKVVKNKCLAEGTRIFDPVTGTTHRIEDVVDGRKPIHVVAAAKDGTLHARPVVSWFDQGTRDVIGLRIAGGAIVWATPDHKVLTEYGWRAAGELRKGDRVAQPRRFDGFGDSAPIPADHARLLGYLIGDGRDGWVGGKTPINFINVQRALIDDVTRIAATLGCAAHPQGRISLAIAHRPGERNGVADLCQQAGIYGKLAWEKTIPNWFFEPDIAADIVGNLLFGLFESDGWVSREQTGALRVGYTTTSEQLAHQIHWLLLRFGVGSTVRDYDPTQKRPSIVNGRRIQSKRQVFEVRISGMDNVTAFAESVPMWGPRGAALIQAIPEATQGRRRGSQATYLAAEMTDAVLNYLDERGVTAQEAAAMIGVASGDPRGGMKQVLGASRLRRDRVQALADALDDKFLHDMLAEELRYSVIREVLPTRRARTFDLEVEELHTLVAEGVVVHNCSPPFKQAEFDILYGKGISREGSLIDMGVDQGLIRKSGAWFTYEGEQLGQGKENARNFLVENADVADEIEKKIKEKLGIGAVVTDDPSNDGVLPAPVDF

[11] = molecular target: T2, Corticotropin-releasing factor receptor 2/Corticotropin-releasing factor-binding protein; assay: activators of CRF receptor 2 with binding protein – uHTS hits, confirmation (AID 602473); assay type: functional; settings: read-out: EC50_Mean
[12] = Trypanosoma cruzi growth suppression in host cells – NIH3T3 host cells, beta-gal luminescence, confirmation (AID 2044); assay type: functional, cell-based;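 note: intracellular parasites grown in NIH/3T3 mouse fibroblasts as host cells; luminescent beta-galactosidase reporter signal from transgenic T. cruzi replicating inside host cells; inhibitors lower the luminescence signal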
[13] = NIH3T3 cell viability loss – ATP luminescence, mouse fibroblasts, counter-screen, dose response (AID 2010); assay type: functional, cell-based;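 note: cells exposed to compound for about 90 hours before reading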

Row | SMILES | EC50 [1] | EC50 [2] | EC50 [3] | IC50 [4] | also measured
1 | O=C1/C(=C/c2cccnc2)Oc2cc(OS(=O)(=O)c3ccccc3)ccc21 | 8.55 µM (active) | 18.3 µM (active) | > 120 µM (not active) | – | –
2 | Cn1c(CN2CCOCC2)nc2cc(NC(=O)c3ccc(Cl)cc3)ccc21 | 14.3 µM (active) | 26.7 µM (active) | > 120 µM (not active) | – | –
3 | COc1ccc2oc(=O)c(C(=O)N3CCN(c4ccccc4C)CC3)cc2c1 | 17 µM (active) | 57 µM (active) | 19 µM (active) | – | –
4 | COC(=O)C1=C(C)N(CC2CCCO2)C(=O)/C1=C\c1ccc(O)cc1 (configuration not stated) | – | – | – | 25 µM (active) | –
5 | CC1CC(C)(C)N(C(=O)CN2CCN(C)CC2)c2ccccc21 (configuration not stated) | – | – | – | 85.3 µM (active) | –
6 | Cc1ccc(O)c(NC(=S)NC(=O)c2ccc(-c3ccc(Cl)cc3)o2)c1 | – | – | – | – | EC50 [5]: 5.74 µM (active); AC50 [6]: 16.7 µM (active); EC50 [7]: 1.16 µM (active)
7 | Cc1ccc2c(c1)C(c1ccncc1)=NNC(c1ccccc1)=N2 | > 120 µM (not active) | 0.364 µM (active) | 21.2 µM (active) | – | –
8 | COc1cccc(NC(=O)C(=O)NCC2CCCN2S(=O)(=O)c2ccccc2)c1 (configuration not stated) | 2.67 µM (active) | 4.26 µM (active) | 58.8 µM (active) | – | –
9 | COc1cc(-c2nc3ccc(C)cn3c2NCc2ccccc2)ccc1SC1CCCCC1 | – | – | – | – | AC50 [6]: 4.87 µM (active)
10 | Cc1n[nH]c(SCC(=O)N2CCCCC2)c1[N+](=O)[O-] | 8.02 µM (active) | 14.7 µM (active) | 17.3 µM (active) | – | –
11 | Nc1ccc(N2CCN(c3ccc(Cl)c(Cl)c3)CC2)cc1 | – | – | – | 18.1 µM (active) | –
12 | CCN1C(=O)/C(=C\NC2CCCC(C)C2C)SC1=S (configuration not stated) | 15.8 µM (active) | 0.564 µM (active) | > 120 µM (not active) | – | –
13 | O=c1oc2ccccc2cc1NCc1ccccc1O | 5.63 µM (active) | 0.325 µM (active) | 46.2 µM (active) | – | –
14 | O=C(Cc1ccc([N+](=O)[O-])cc1)Nc1cccnc1 | – | – | – | – | AC50 [6]: 21.1 µM (active)
15 | COc1cc(/C=C(\C#N)C(=O)Nc2ccc3c(c2)OCCO3)ccc1O | – | – | – | 34 µM (active) | IC50 [8]: > 47.1 µM (inactive); AC50 [9]: 75.9 µM (active); EC50 [10]: 13.9 µM (active); EC50 [11]: > 53 µM (inactive)
16 | CC(C(=O)Nc1ccc2c(c1)OCO2)N1CCN(C)CC1 (configuration not stated) | – | – | – | 65.3 µM (active) | –
17 | COc1cc(/C=C/C(=O)OCC(=O)N(CC(C)C)c2c(N)n(Cc3ccccc3)c(=O)[nH]c2=O)ccc1O | – | – | – | 65.7 µM (active) | EC50 [11]: 2.73 µM (active)
18 | Cc1ccc(CSc2nnc(SCC(=O)N/N=C/c3c(C)nn(-c4ccccc4)c3C)s2)cc1 | > 120 µM (not active) | 0.169 µM (active) | 43.9 µM (active) | – | –
19 | COc1cc(/C=N/NC(=O)c2nc(-c3ccccc3)n(-c3ccccc3)n2)ccc1O | – | – | – | 38.7 µM (active) | –
20 | C/C(=N\N1C(=O)c2ccccc2NC1c1ccccc1)c1ccccc1O (configuration not stated) | – | – | – | – | EC50 [12]: 2.13 µM (active); AC50 [6]: 2.24 µM (active); EC50 [13]: 7.4 µM (active)
21 | O=C(/N=C1\SCC(=O)N1c1ccccc1Cl)c1ccco1 | 8.06 µM (active) | 4.12 µM (active) | – | – | –
22 | N#CCC(=O)N/N=C/c1cc(-c2ccccc2)n(-c2ccc(Cl)cc2)c1-c1ccccc1 | – | – | – | – | EC50 [12]: 1.51 µM (active); AC50 [6]: 3.21 µM (active); EC50 [13]: > 60 µM (inconclusive)
